Measurements published in PMC7673538 (PLoS Biology, 2020).
Where “and” joins values, the source holds several entries; their conditions need not be identical. Equal entries are not always repeated. Where two headings read alike, the source gives them in different places.

What was measured:
CV-A24v = test: microbe, parasite or virus in culture; format: cell-based, coxsackievirus A24v; conditions: for EC50: Coxsackievirus
HRV-A2 [1] = test: microbe, parasite or virus in culture; format: cell-based, human rhinovirus; conditions: for EC50: Human rhinovirus sp.
CV-B3 = test: microbe, parasite or virus in culture; format: cell-based, coxsackievirus B3; conditions: Enterovirus B, CVB3, BGM
[2] = test system: representative EVs and RVs; format: cell-based
EV-A71 (strain BrCr) = format: cell-based, enterovirus A71
CV-B3 (strain Nancy) = format: cell-based, coxsackievirus B3
CV-A24 (strain Joseph) = format: cell-based, coxsackievirus A24; conditions: compound concentration 1 µM
EV-D68 (strain Fermon) = format: cell-based, enterovirus D68
HRV-A2 [3] = format: cell-based, human rhinovirus
HRV-B14 = format: cell-based, human rhinovirus; conditions: compound concentration 0.1 µM
in vitro [4] = conditions: human
in vitro [5] = conditions: human; remark: listed apart in the source
in vitro [6] = conditions: monkey

For `COc1ccc(N(Cc2ccc(F)cc2)C(=O)c2ccco2)cc1` [Compound 1, N-(4-fluorobenzyl)-N-(4-methoxyphenyl)furan-2-carboxamide], which “Figure 7 dose-response raw data, CV-A24v (triplicate values)” value (“Figure 7 dose-response raw data, CV-A24v” for short) (CV-A24v; Concentration 0.0137 µM) is on record?
Its value is 9.388 and 8.898 and 11.4747.

What about the “Figure 7 dose-response raw data, CV-A24v” value (CV-A24v; Concentration 0.0412 µM) of the same molecule?
The value was 9.388 and 8.898 and 11.4747.

What about the “Figure 7 dose-response raw data, CV-A24v” value (CV-A24v; Concentration 0.1235 µM) of the same molecule?
The value was 8.529 and 8.161 and 15.8928.

And the “Figure 7 dose-response raw data, CV-A24v” value (CV-A24v; Concentration 0.3704 µM)?
Its value is 10.8611 and 15.1565 and 15.6474.

What about the “Figure 7 dose-response raw data, CV-A24v” value (CV-A24v; Concentration 1.1111 µM) of the same molecule?
Its value is 10.0021 and 16.3837 and 13.9292.

What about the “Figure 7 dose-response raw data, CV-A24v” value (CV-A24v; Concentration 11.1111 µM) of the same molecule?
Its value is 8.182 and 7.259 and 9.382.

And the EC50 (CV-A24v; HeLa R19, read-out: EC50 CV-A24v strain 110386)?
Its EC50 is over 30 µM.

And the EC50 (CV-A24v; HeLa R19, read-out: EC50 CV-A24v strain 110389)?
The EC50 was over 30 µM.

And the EC50 (CV-A24v; HeLa R19, read-out: EC50 CV-A24v strain 110390)?
Its EC50 is over 30 µM.

And the EC50 (CV-A24v; HeLa R19, read-out: EC50 CV-A24v strain 110392)?
The EC50 was over 30 µM.

And the “Figure 7 dose-response raw data, HRV-A2 (triplicate values)” value (from here on “Figure 7 dose-response raw data, HRV-A2”) (HRV-A2 [1]; Concentration 0.0412 µM)?
Its value is 7.118 and 8.563 and 11.1417.

And the “Figure 7 dose-response raw data, HRV-A2” value (HRV-A2 [1]; Concentration 0.1235 µM)?
Its value is 6.499 and 7.221 and 5.983.

What about the “Figure 7 dose-response raw data, HRV-A2” value (HRV-A2 [1]; Concentration 0.3704 µM) of the same molecule?
The value was 11.7607 and 8.975 and 8.666.

What about the “Figure 7 dose-response raw data, HRV-A2” value (HRV-A2 [1]; Concentration 3.3333 µM) of the same molecule?
The value was 6.087 and 4.436 and 5.983.

And the “Figure 7 dose-response raw data, HRV-A2” value (HRV-A2 [1]; Concentration 33.3333 µM)?
The value was 4.849 and 8.666 and 8.769.

And the “Figure 7 dose-response raw data, HRV-A2” value (HRV-A2 [1]; Concentration 100 µM)?
Its value is 4.849 and 8.666 and 8.769.

And the EC50 (HRV-A2 [1]; HRVA2, HeLa R19, read-out: EC50 HRV-A2)?
The EC50 was over 30 µM.

And the EC50 (HRV-A2 [1]; HRVA2, HeLa R19, read-out: EC50 HRV-A2 Average)?
Its EC50 is over 30 µM.

What about the EC50 (HRV-A2 [1]; HRVA2, HeLa R19, read-out: EC50 HRV-A2 Experiement 3) of the same molecule?
Its EC50 is over 30 µM.

What about the EC50 (HRV-A2 [1]; HRVA2, HeLa R19, read-out: EC50 HRV-A2 Experiment 1) of the same molecule?
The EC50 was over 30 µM.

What about the EC50 (HRV-A2 [1]; HRVA2, HeLa R19, read-out: EC50 HRV-A2 Experiment 2) of the same molecule?
The EC50 was over 30 µM.

What about the EC50 (CV-B3; read-out: EC50 BGM Average) of the same molecule?
Its EC50 is 1.66 µM.

And the EC50 (CV-B3; read-out: Exp 1 EC50 BGM)?
Its EC50 is 1.43 µM.

And the EC50 (CV-B3; read-out: Exp 2 EC50 BGM)?
Its EC50 is 1.89 µM.

And the “inhibition of contemporary/clinical isolates of EV-A71, CV-A24v and EV-D68 (in words)” value [2]?
Its value is “only inhibited the contemporary strains of EV-D68”.

And the “virus titer, TCID50/ml (Figure 2A)” value (EV-A71 (strain BrCr); compound concentration 0.001 µM)?
Its value is 316228 TCID50/ml.

And the “virus titer, TCID50/ml (Figure 2A)” value (EV-A71 (strain BrCr); compound concentration 0.01 µM)?
Its value is 316228 TCID50/ml.

What about the “virus titer, TCID50/ml (Figure 2A)” value (EV-A71 (strain BrCr); compound concentration 0.1 µM) of the same molecule?
The value was 316228 TCID50/ml.

And the “virus titer, TCID50/ml (Figure 2A)” value (EV-A71 (strain BrCr); compound concentration 0.3 µM)?
Its value is 316228 TCID50/ml.

And the “virus titer, TCID50/ml (Figure 2A)” value (CV-B3 (strain Nancy); compound concentration 1 µM)?
The value was 1000000000 TCID50/ml.

And the “virus titer, TCID50/ml (Figure 2A)” value (CV-B3 (strain Nancy); compound concentration 10 µM)?
The value was 31622.8 TCID50/ml and 16982.4 TCID50/ml and 21379.6 TCID50/ml.

And the “virus titer, TCID50/ml (Figure 2A)” value (CV-A24 (strain Joseph))?
Its value is 100000 TCID50/ml and 169824 TCID50/ml and 162341 TCID50/ml.

And the “virus titer, TCID50/ml (Figure 2A)” value (EV-D68 (strain Fermon); compound concentration 3 µM)?
Its value is 31622.8 TCID50/ml and 21379.6 TCID50/ml and 35481.3 TCID50/ml.

What about the “virus titer, TCID50/ml (Figure 2A)” value (EV-D68 (strain Fermon); compound concentration 10 µM) of the same molecule?
The value was 31622.8 TCID50/ml and 21379.6 TCID50/ml and 35481.3 TCID50/ml.

What about the “virus titer, TCID50/ml (Figure 2A)” value (EV-D68 (strain Fermon); compound concentration 100 µM) of the same molecule?
Its value is 31622.8 TCID50/ml and 21379.6 TCID50/ml and 35481.3 TCID50/ml.

And the “virus titer, TCID50/ml (Figure 2A)” value (HRV-A2 [3]; compound concentration 0.1 µM)?
Its value is 316278 TCID50/ml and 312278 TCID50/ml.

What about the “virus titer, TCID50/ml (Figure 2A)” value (HRV-A2 [3]; compound concentration 0.3 µM) of the same molecule?
The value was 169824 TCID50/ml and 100000 TCID50/ml.

What about the “virus titer, TCID50/ml (Figure 2A)” value (HRV-A2 [3]; compound concentration 3 µM) of the same molecule?
Its value is 354813 TCID50/ml.

And the “virus titer, TCID50/ml (Figure 2A)” value (HRV-A2 [3]; compound concentration 100 µM)?
Its value is 169824 TCID50/ml and 188844 TCID50/ml.

And the “virus titer, TCID50/ml (Figure 2A)” value (HRV-A2 [3]; compound concentration 150 µM)?
The value was 354813 TCID50/ml and 588844 TCID50/ml.

What about the “virus titer, TCID50/ml (Figure 2A)” value (HRV-B14) of the same molecule?
Its value is 10000000 TCID50/ml.

And the “cytotoxic effect (in words)” value (HeLa R19 cells)?
Its value is “did not show any adverse cytotoxic effect”.

What about the CC50 (in vitro [4]; CC50) of the same molecule?
The CC50 was over 30 µM.

What about the CC50 (in vitro [4]; CC50 Average) of the same molecule?
Its CC50 is over 30 µM.

And the CC50 (in vitro [4]; CC50 Experiement 3)?
The CC50 was over 30 µM.

And the CC50 (in vitro [4]; CC50 Experiment 1)?
The CC50 was over 30 µM.

What about the CC50 (in vitro [4]; CC50 Experiment 2) of the same molecule?
The CC50 was over 30 µM.

And the CC50 (in vitro [4]; CC50 HelaR19 Average)?
The CC50 was 43.9 µM.

And the CC50 (in vitro [4]; Exp 1 CC50)?
Its CC50 is over 30 µM.

And the CC50 (in vitro [4]; Exp 1 CC50 HelaR19)?
Its CC50 is 40.4 µM.

And the CC50 (in vitro [4]; Exp2 CC50)?
The CC50 was over 30 µM.

What about the CC50 (in vitro [4]; Exp 2 CC50 HelaR19) of the same molecule?
The CC50 was 47.4 µM.

What about the CC50 (in vitro [5]; CC50 Hap1 Average) of the same molecule?
The CC50 was 45.6 µM.

What about the CC50 (in vitro [5]; Exp 1 CC50 Hap1) of the same molecule?
Its CC50 is 45.1 µM.

What about the CC50 (in vitro [5]; Exp 2 CC50 Hap1) of the same molecule?
The CC50 was 46.1 µM.

What about the CC50 (in vitro [6]; CC50) of the same molecule?
The CC50 was 50.65 ± 0.32 µM.

And the CC50 (in vitro [6]; CC50 BGM Average)?
The CC50 was 50.6 µM.

And the CC50 (in vitro [6]; Exp 1 CC50 BGM)?
Its CC50 is 51 µM.

And the CC50 (in vitro [6]; Exp 2 CC50 BGM)?
Its CC50 is 50.3 µM.
